Experimental data reported in the supplement of paper PMC10307832.

What was measured:
Assay in all cases: relative viability (nuclei count vs DMSO), 5 days (fraction); higher = more cells survive
[1] = compound: O=c1[nH]cc(F)c(=O)[nH]1 [5-Fluorouracil] + CC(=O)Nc1cccc(-n2c(=O)n(C3CC3)c(=O)c3c(Nc4ccc(I)cc4F)n(C)c(=O)c(C)c32)c1 [Trametinib] (partner 0.02 µM)
Outline: (§1)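 The day after seeding in 1536-well plates, lung cancer cell lines were treated by pin tool with a single drug, or with a fixed anchor-drug dose together with five library-drug doses (not always all listed) in √10 steps. After 5 days, a combined fix-and-stain solution (final 0.05% Triton X-100, 1% formaldehyde, 1 ug/ml Hoechst) was added. Nuclei counted on 4× images gave relative viability as treated counts over vehicle counts, reported as the median of duplicate plates.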

Sulindac + Olaparib = compound: CC1=C(CC(=O)O)c2cc(F)ccc2/C1=C\c1ccc([S+](C)[O-])cc1 [Sulindac] + O=C(c1cc(Cc2n[nH]c(=O)c3ccccc23)ccc1F)N1CCN(C(=O)C2CC2)CC1 [Olaparib] (partner 8 µM)
Outline: as §1

[2] = compound: CN[C@@H]1C[C@H]2O[C@@](C)([C@@H]1OC)n1c3ccccc3c3c4c(c5c6ccccc6n2c5c31)C(=O)NC4 [Staurosporine] + CS(=O)(=O)N1CCN(Cc2cc3nc(-c4cccc5[nH]ncc45)nc(N4CCOCC4)c3s2)CC1 [Pictilisib] (partner 1 µM)
Outline: as §1

[3] = compound: CN[C@@H]1C[C@H]2O[C@@](C)([C@@H]1OC)n1c3ccccc3c3c4c(c5c6ccccc6n2c5c31)C(=O)NC4 [Staurosporine] + Nc1nc2[nH]cc(CCc3ccc(C(=O)N[C@@H](CCC(=O)O)C(=O)O)cc3)c2c(=O)[nH]1 [Pemetrexed] (partner 0.2 µM)
Outline: as §1

Row | Cell Line | relative viability ([1]; first compound 0.02 µM) | relative viability ([1]; first compound 0.2 µM) | relative viability ([1]; first compound 0.6325 µM) | relative viability ([1]; first compound 2 µM) | relative viability (Sulindac + Olaparib; first compound 0.08 µM) | relative viability (Sulindac + Olaparib; first compound 0.253 µM) | relative viability (Sulindac + Olaparib; first compound 0.8 µM) | relative viability (Sulindac + Olaparib; first compound 2.53 µM) | relative viability (Sulindac + Olaparib; first compound 8 µM) | relative viability ([2]; first compound 0.005 µM) | relative viability ([2]; first compound 0.01581 µM) | relative viability ([2]; first compound 0.05 µM) | relative viability ([2]; first compound 0.1581 µM) | relative viability ([2]; first compound 0.5 µM) | relative viability ([3]; first compound 0.005 µM) | relative viability ([3]; first compound 0.01581 µM) | relative viability ([3]; first compound 0.05 µM) | relative viability ([3]; first compound 0.1581 µM) | relative viability ([3]; first compound 0.5 µM)
1 | HARA | 0.852 | 0.625 | 0.856 | 0.644 | 0.737 | 0.935 | 1 | 0.731 | 0.955 | 0.193 | 0.23 | 0.0859 | 0.0523 | 0.062 | 0.195 | 0.167 | 0.134 | 0.138 | 0.168
2 | NCI-H1944 | 0.412 | 0.333 | 0.244 | 0.195 | 0.433 | 0.404 | 0.302 | 0.438 | 0.42 | 0.295 | – | 0.26 | 0.231 | 0.184 | 0.626 | 0.311 | 0.26 | 0.164 | 0.185
3 | NCI-H2405 | 0.629 | 0.692 | 0.579 | 0.6 | 0.93 | 0.851 | 0.86 | 0.831 | 1.08 | 0.284 | 0.135 | 0.103 | 0.0688 | 0.064 | 0.417 | 0.174 | 0.14 | 0.0988 | 0.1
4 | 201T | 0.715 | 0.563 | 0.305 | 0.284 | 0.896 | 0.825 | 0.846 | 0.886 | 0.883 | 0.595 | 0.451 | 0.551 | 0.463 | 0.42 | 0.339 | – | 0.261 | 0.253 | 0.214
5 | RERF-LC-KJ | 0.949 | 0.811 | 0.838 | 0.7 | 0.949 | 1.01 | 0.971 | 0.861 | 1.07 | 0.565 | 0.308 | 0.284 | 0.151 | 0.141 | 0.501 | 0.423 | 0.375 | 0.205 | 0.202
6 | NCI-H1734 | 0.709 | 0.682 | 0.584 | 0.415 | 0.634 | 0.67 | 0.609 | 0.649 | 0.674 | 0.317 | 0.175 | 0.174 | 0.105 | 0.0965 | 0.394 | 0.305 | 0.338 | 0.133 | 0.141
7 | NCI-H1650 | 0.745 | 0.532 | 0.33 | 0.254 | 0.827 | 0.723 | 0.705 | 0.742 | 0.757 | 0.284 | 0.141 | 0.138 | 0.15 | 0.107 | 0.325 | 0.239 | 0.209 | 0.23 | 0.104
8 | PC-14 | 0.837 | 0.734 | 0.81 | 0.456 | 0.271 | 0.321 | 0.272 | 0.209 | 0.272 | 0.237 | 0.12 | 0.0413 | 0.0584 | 0.0397 | 0.159 | 0.131 | 0.0585 | 0.0487 | 0.048
9 | NCI-H1915 | 0.28 | 0.325 | 0.253 | 0.283 | 0.241 | 0.266 | 0.245 | 0.254 | 0.264 | 0.719 | – | 0.35 | – | 0.0773 | 0.486 | 0.231 | 0.219 | 0.15 | 0.0886
10 | COR-L23 | 0.585 | 0.631 | 0.359 | 0.275 | 0.348 | 0.449 | 0.291 | 0.323 | 0.376 | 0.32 | 0.148 | 0.127 | 0.0645 | 0.0442 | 0.191 | 0.151 | 0.161 | 0.135 | 0.0959
11 | ChaGo-K-1 | 0.934 | 0.796 | 0.691 | 0.499 | 0.485 | 0.359 | 0.414 | 0.379 | 0.449 | 0.692 | – | 0.52 | 0.244 | – | 0.262 | – | 0.251 | 0.141 | 0.163
12 | HOP-62 | 0.362 | 0.417 | 0.392 | 0.357 | 0.3 | 0.677 | 0.351 | 0.266 | 0.545 | 0.182 | 0.0895 | 0.0986 | 0.0751 | 0.0641 | 0.267 | 0.133 | 0.134 | 0.113 | 0.0837
13 | NCI-H1975 | 0.307 | 0.548 | 0.313 | 0.238 | 0.998 | 0.763 | 0.65 | 0.841 | 0.974 | 0.209 | 0.14 | 0.156 | 0.103 | 0.11 | 0.246 | 0.185 | 0.184 | 0.128 | 0.118
14 | BEN | 0.934 | 0.93 | 0.946 | 0.938 | 0.964 | 1.07 | 1 | 1.05 | 1.06 | 0.836 | 0.612 | 0.474 | 0.251 | 0.204 | 0.831 | 0.749 | 0.523 | 0.261 | 0.303
15 | NCI-H1437 | 0.364 | 0.247 | 0.22 | 0.18 | 0.748 | 0.679 | 0.503 | 0.638 | 0.665 | 0.449 | 0.25 | 0.249 | 0.108 | 0.0658 | 0.268 | 0.214 | 0.182 | 0.17 | 0.131
16 | EMC-BAC-2 | 0.934 | 1.05 | 0.914 | 0.879 | 0.493 | 0.488 | 0.476 | 0.46 | 0.566 | 0.29 | 0.129 | 0.141 | 0.195 | 0.176 | 0.362 | 0.273 | 0.258 | 0.255 | 0.224
17 | SW 1573 | 0.576 | 0.631 | 0.497 | 0.306 | 0.52 | 0.523 | 0.528 | 0.478 | 0.551 | 0.275 | 0.18 | 0.123 | 0.0832 | 0.0842 | 0.297 | 0.34 | 0.204 | 0.0927 | 0.0611
